Results taken from US8192962B2, “Processes for detecting toxic substances” (Daikin Industries, Ltd., priority 2001, dated 2012).

Test system: Mitochondria-located protein genes
Test: DNA chip mRNA expression in yeast, mitochondria-located protein genes (Table 2)
Assay type: cell-based, Saccharomyces cerevisiae S288C
Conditions: cells incubated two hours with the chemical substance
Outline: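 S. cerevisiae S288C grown at 25° C. in YPD to log phase, then exposed 2 h to a toxicant at a growth-inhibiting, non-lethal concentration; untreated cells as control. Poly(A) mRNA reverse-transcribed with Cy3-dUTP or Cy5-dUTP, hybridized >12 h at 65° C. to whole-genome yeast DNA chip; value = fluorescence ratio treated/untreated.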

In the case of `COc1cc(CNC(=O)CCCCC=CC(C)C)ccc1O` [(12), 8-methyl-N-vanillyl-6-nonenamide], the “The level of expressed mRNA in the presence of chemical substance/The level of expressed mRNA in the absence of chemical substance” value (yeast gene YJR121W) is reported as 0.8, the “The level of expressed mRNA in the presence of chemical substance/The level of expressed mRNA in the absence of chemical substance” value (yeast gene YKL003C) is reported as 0.7 and the “The level of expressed mRNA in the presence of chemical substance/The level of expressed mRNA in the absence of chemical substance” value (yeast gene YKL016C) is reported as 1.0. For the same compound, the “The level of expressed mRNA in the presence of chemical substance/The level of expressed mRNA in the absence of chemical substance” value (yeast gene YKL141W) was 0.8, the “The level of expressed mRNA in the presence of chemical substance/The level of expressed mRNA in the absence of chemical substance” value (yeast gene YKL142W) was 1.9 and the “The level of expressed mRNA in the presence of chemical substance/The level of expressed mRNA in the absence of chemical substance” value (yeast gene YKL148C) was 0.8. For the same compound, the “The level of expressed mRNA in the presence of chemical substance/The level of expressed mRNA in the absence of chemical substance” value (yeast gene YKL170W) was 0.8, the “The level of expressed mRNA in the presence of chemical substance/The level of expressed mRNA in the absence of chemical substance” value (yeast gene YKL194C) was 0.6 and the “The level of expressed mRNA in the presence of chemical substance/The level of expressed mRNA in the absence of chemical substance” value (yeast gene YKR066C) was 0.9. The “The level of expressed mRNA in the presence of chemical substance/The level of expressed mRNA in the absence of chemical substance” value (yeast gene YLL041C) was 0.8, the “The level of expressed mRNA in the presence of chemical substance/The level of expressed mRNA in the absence of chemical substance” value (yeast gene YLR038C) was 0.6 and the “The level of expressed mRNA in the presence of chemical substance/The level of expressed mRNA in the absence of chemical substance” value (yeast gene YLR259C) was 0.7. The “The level of expressed mRNA in the presence of chemical substance/The level of expressed mRNA in the absence of chemical substance” value (yeast gene YLR295C) was 0.5, the “The level of expressed mRNA in the presence of chemical substance/The level of expressed mRNA in the absence of chemical substance” value (yeast gene YLR304C) was 1.0 and the “The level of expressed mRNA in the presence of chemical substance/The level of expressed mRNA in the absence of chemical substance” value (yeast gene YLR348C) was 0.9. The “The level of expressed mRNA in the presence of chemical substance/The level of expressed mRNA in the absence of chemical substance” value (yeast gene YLR395C) was 0.6, the “The level of expressed mRNA in the presence of chemical substance/The level of expressed mRNA in the absence of chemical substance” value (yeast gene YML054C) was 1.8 and the “The level of expressed mRNA in the presence of chemical substance/The level of expressed mRNA in the absence of chemical substance” value (yeast gene YML120C) was 0.9. The “The level of expressed mRNA in the presence of chemical substance/The level of expressed mRNA in the absence of chemical substance” value (yeast gene YML129C) was 0.8, the “The level of expressed mRNA in the presence of chemical substance/The level of expressed mRNA in the absence of chemical substance” value (yeast gene YMR023C) was 0.7 and the “The level of expressed mRNA in the presence of chemical substance/The level of expressed mRNA in the absence of chemical substance” value (yeast gene YMR035W) was 0.5. For the same compound, the “The level of expressed mRNA in the presence of chemical substance/The level of expressed mRNA in the absence of chemical substance” value (yeast gene YMR083W) was 0.7, the “The level of expressed mRNA in the presence of chemical substance/The level of expressed mRNA in the absence of chemical substance” value (yeast gene YMR089C) was 0.8 and the “The level of expressed mRNA in the presence of chemical substance/The level of expressed mRNA in the absence of chemical substance” value (yeast gene YMR152W) was 1.3. For the same compound, the “The level of expressed mRNA in the presence of chemical substance/The level of expressed mRNA in the absence of chemical substance” value (yeast gene YMR203W) was 0.7, the “The level of expressed mRNA in the presence of chemical substance/The level of expressed mRNA in the absence of chemical substance” value (yeast gene YMR267W) was 0.8 and the “The level of expressed mRNA in the presence of chemical substance/The level of expressed mRNA in the absence of chemical substance” value (yeast gene YNL055C) was 1.7. The “The level of expressed mRNA in the presence of chemical substance/The level of expressed mRNA in the absence of chemical substance” value (yeast gene YNL071W) was 1.3, the “The level of expressed mRNA in the presence of chemical substance/The level of expressed mRNA in the absence of chemical substance” value (yeast gene YNL073W) was 0.7 and the “The level of expressed mRNA in the presence of chemical substance/The level of expressed mRNA in the absence of chemical substance” value (yeast gene YNL104C) was 1.1. The “The level of expressed mRNA in the presence of chemical substance/The level of expressed mRNA in the absence of chemical substance” value (yeast gene YNL256W) was 0.6, the “The level of expressed mRNA in the presence of chemical substance/The level of expressed mRNA in the absence of chemical substance” value (yeast gene YOL096C) was 1.2 and the “The level of expressed mRNA in the presence of chemical substance/The level of expressed mRNA in the absence of chemical substance” value (yeast gene YOR020C) was 0.8. The “The level of expressed mRNA in the presence of chemical substance/The level of expressed mRNA in the absence of chemical substance” value (yeast gene YOR037W) was 1.2, the “The level of expressed mRNA in the presence of chemical substance/The level of expressed mRNA in the absence of chemical substance” value (yeast gene YOR100C) was 0.8 and the “The level of expressed mRNA in the presence of chemical substance/The level of expressed mRNA in the absence of chemical substance” value (yeast gene YOR130C) was 0.9. The “The level of expressed mRNA in the presence of chemical substance/The level of expressed mRNA in the absence of chemical substance” value (yeast gene YOR142W) was 0.8, the “The level of expressed mRNA in the presence of chemical substance/The level of expressed mRNA in the absence of chemical substance” value (yeast gene YOR150W) was 0.8 and the “The level of expressed mRNA in the presence of chemical substance/The level of expressed mRNA in the absence of chemical substance” value (yeast gene YOR176W) was 1.3. For the same compound, the “The level of expressed mRNA in the presence of chemical substance/The level of expressed mRNA in the absence of chemical substance” value (yeast gene YOR187W) was 0.8, the “The level of expressed mRNA in the presence of chemical substance/The level of expressed mRNA in the absence of chemical substance” value (yeast gene YOR316C) was 1.1 and the “The level of expressed mRNA in the presence of chemical substance/The level of expressed mRNA in the absence of chemical substance” value (yeast gene YPL040C) was 0.9. For the same compound, the “The level of expressed mRNA in the presence of chemical substance/The level of expressed mRNA in the absence of chemical substance” value (yeast gene YPL134C) was 0.8, the “The level of expressed mRNA in the presence of chemical substance/The level of expressed mRNA in the absence of chemical substance” value (yeast gene YPL135W) was 1.1 and the “The level of expressed mRNA in the presence of chemical substance/The level of expressed mRNA in the absence of chemical substance” value (yeast gene YPL215W) was 0.7. For the same compound, the “The level of expressed mRNA in the presence of chemical substance/The level of expressed mRNA in the absence of chemical substance” value (yeast gene YPL262W) was 1.1, the “The level of expressed mRNA in the presence of chemical substance/The level of expressed mRNA in the absence of chemical substance” value (yeast gene YPR024W) was 0.8 and the “The level of expressed mRNA in the presence of chemical substance/The level of expressed mRNA in the absence of chemical substance” value (yeast gene YPR037C) was 0.9. The “The level of expressed mRNA in the presence of chemical substance/The level of expressed mRNA in the absence of chemical substance” value (yeast gene YPR047W) was 0.9 and the “The level of expressed mRNA in the presence of chemical substance/The level of expressed mRNA in the absence of chemical substance” value (yeast gene YPR134W) was 0.9.
